Experimental data published in patent publication US20260199301A1, “PHENYL-PYRAZOLO[3,4-B]PYRIDINE-4-CARBOXYLIC ACID DERIVATES FOR USE AS 5-ALPHA REDUCTASE ANTAGONISTS IN METHODS OF TREATMENT” (UNIVERSITY OF CAPE TOWN, priority 2022, published 2026).
Values after ≈ are worked out from the molar mass of the structure shown. Like-named read-outs stand apart in the source and are kept apart here.

Legend:
[1] = Plasma protein binding by ultracentrifugation; format: in vitro ADME; settings: mouse, read-out: Mouse PPB (converted)
SRD5A1 gene = assay: qPCR relative expression of SRD5A1 gene in DU-145 cell line; format: cell-based, human; settings: DU-145, 24 hours at IC50 values
Protocol: (§1) The DU-145 cell lines and HEK293 cell lines were grown to 70% confluence in DMEM supplemented with 10% (v/v) fetal bovine serum and 1% antibiotic (100 μg/mL of streptomycin and 100 unit/mL of penicillin (P/S) at 37° C. in a 5% CO2 environment.
(§2) The androgen-independent DU-145 cell line, treated with finasteride (0.9 nM), dutasteride (1.6 μM), and Bsy1 (0.0054 nM) for 24 hours, was measured for their SRD5A gene regulation using qPCR. […] The relative expression of the SRD5A2 gene was reduced by approximately 3-fold for finasteride and dutasteride and 2-fold for Bsy1 (FIG. 5A). However, it should be noted that the finasteride concentrations were 100-fold, and dutasteride 1000-fold, higher than the concentration of Bsy1. […] The level of inhibitory action against SRD5A1 and SRD5A2 is surprising as it is expected that that the phenyl-pyrazolo[3,4-b]pyridine-4-carboxylic acid Bsy1 and its derivates, as described herein, will show similar inhibition results. […] Experiments were repeated three times.]
(§3) A two-way ANOVA statistical analysis was conducted to compare the gene suppression levels of each drug treatment against the control (untreated), using Dunnett's correction test (DCT) (FIG. 5B). [FIG. 5B—two-way ANOVA Dunnett test of the Control vs Treatment at IC50 values. Comparison tests of control vs. drug treatment at p<0.05 for: SRD5A1 (ns); SRD5A2**; SRD5A3 (ns). […]

HEK293 cell line = assay: MTT assay IC50 in HEK293 cell line; format: cell-based, human
Protocol: as §1
(§4) The half maximal inhibitory concentration (IC50) was established in the selected cell lines. The cell lines previously identified as having high endogenous expression levels of SRD5A2 were used to determine the in-vitro cytotoxic effects of Bsy1 on DU-145 and HEK293. The results were compared with the comparative compounds finasteride and dutasteride. The cytotoxic concentration and cell viability of these drugs were evaluated using the 3-(4,5-dimethylthiazol-2-yl)-2,5-diphenyl-2H-tetrazolium bromide (“MTT”) assay, using the comparative compounds as positive controls.
(§5) The study seeded cells at 1×10^4 cells/well density using a 96-well plate and incubated them for 24 hours to allow the cells to attach in a 5% CO2 incubator at 37° C. Different serial concentrations of the compounds treated the cells, 1% (v/v) DMSO/methanol in DMEM treated the control cells, and DMEM only served as a blank. Cells were stained with 100 μl of a 0.5 mg/ml MTT solution and incubated in a 5% CO2 atmosphere at 37° C. incubators for 4 hours. The medium was aspirated, and 100 μl of absolute ethanol was added to each well. The formation of […] measured all growth and chemosensitivity. Absorbance was detected spectrophotometrically at 570 nm using a reference wavelength of 630 nm. The experiments were performed in triplicate.
(§6) The dose-response from the non-linear curve (inhibitor vs normalised response—variable slope curve), plotted using GraphPad Prism V 9.3.1, was used to determine the IC50 values of these cells.
However, the IC50 values for Bsy1 in the HEK293 cell lines were higher than in the DU-145 cells.

SRD5A2 = target: T1, SRD5A2 (Homo sapiens, UniProt P31213); settings: cited from earlier work
T1 sequence (P31213 1-254): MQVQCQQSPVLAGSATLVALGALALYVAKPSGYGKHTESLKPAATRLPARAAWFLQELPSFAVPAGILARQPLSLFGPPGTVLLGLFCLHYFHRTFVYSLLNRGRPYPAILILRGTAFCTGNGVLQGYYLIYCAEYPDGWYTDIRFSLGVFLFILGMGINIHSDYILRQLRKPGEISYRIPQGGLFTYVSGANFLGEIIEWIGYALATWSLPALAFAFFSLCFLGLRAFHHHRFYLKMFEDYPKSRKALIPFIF

[2] = test system: HEK293 and DU-145 cell lines; assay: Selectivity index from ratio of IC50 values, normal cells vs cancer cells; format: cell-based, human; settings: normal cells (HEK293) vs cancer cells (DU-145)
Protocol: The selectivity index, indicating the selectivity of a given compound between normal cells and cancer cells, was calculated from the ratio of their respective IC50 values (Equation 1).

SRD5A2 gene [3] = assay: qPCR relative expression of SRD5A2 gene in HEK293 cell line; format: cell-based, human; settings: for relative expression of the SRD5A2 gene increased: HEK293, 24 hours at IC50 (finasteride 1.34 nM, dutasteride 1.29 μM, Bsy1 0.02 nM)
Protocol: as §1
Experiments were repeated three times.]
The two-way ANOVA compared the expression levels of the SRD5A genes and between the different drugs in HEK293 cell lines (FIG. 6 B). […] Data were expressed for each bar as means±standard error of mean ****P≤0.0001 from control.

in vitro [4] = settings: CD1, mouse, hepatocytes
Protocol: (§7) Hepatocyte stability was performed using a 5-point assay design using cryopreserved hepatocytes in suspension. Briefly, the compounds (1 μM) were incubated at 37° C. in human (Hepatosure 100-donor pool, XenoTech LLC) and mouse (Cryostax mouse CD1, XenoTech LLC) hepatocytes (500,000 cells/ml) for various timepoints over 120 min. Reactions were quenched by adding ice-cold acetonitrile containing internal standard. The samples were then centrifuged, and the samples analysed by LC-MS/MS (Agilent Rapid Resolution HPLC, AB SCIEX 4500 MS) for the disappearance of parent compound. Half-life, clearance and hepatic excretion ratios were determined using standard equations.
(§8) The CLint,app value can be used to calculate a predicted in vivo value by factoring in scaling factors (number of hepatocytes per gram of liver and grams of liver per kg body weight) and binding (measured plasma protein binding and estimated incubational binding). The predicted mouse and human clearance values represent the total hepatic clearances that would be expected for these compounds in vivo.

SRD5A2 gene [5] = assay: qPCR relative expression of SRD5A2 gene in DU-145 cell line; format: cell-based, human; settings: DU-145, 24 hours at IC50 (finasteride 0.9 nM, dutasteride 1.6 μM, Bsy1 0.0054 nM)
Protocol: as §1, §2, §3

[6] = 1 μM
Protocol: as §7, §8

in vitro [7] = settings: human, hepatocytes
Protocol: as §7, §8

DU-145 cell line = assay: MTT assay IC50 in DU-145 cell line; format: cell-based, human; settings: called antagonist activity against SRD5A2
Protocol: as §1, §4, §5, §6
The study determined the ICs values using a non-linear curve fit with a hyperbola model (FIG. 3).

[8] = CD1, mouse, 1 μM
Protocol: as §7, §8

[9] = Solubility, miniaturised shake-flask method; format: physicochemical; settings: aqueous buffer, thermodynamic from solid, pH 7.4 as headed, phosphate buffer, 25° C.
Protocol: […] Briefly, 4 μl of a 10 mM stock in DMSO was added to a 96-well plate and evaporated using a GeneVac system. […] At the end of this incubation, the samples were centrifuged at 3500 g for 15 min then transferred to an analysis plate. A calibration curve in DMSO for each sample between 10-220 μM was prepared and included in the analysis plate. Analysis was then performed by LC-MS (Agilent Rapid Resolution HPLC, AB SCIEX 4500 MS) and solubility of each sample determined from the corresponding calibration curve.

[10] = Human hepatocyte stability
Protocol: as §7, §8

[11] = Mouse hepatocyte stability
Protocol: as §7, §8

[12] = Homo sapiens, HEK293, HEK293 cell line, called antagonist activity against SRD5A2, read-out: IC50
[13] = Homo sapiens, DU-145, DU-145 cell line

With `CC(C)(C)NC(=O)[C@H]1CC[C@H]2[C@@H]3CC[C@H]4NC(=O)C=C[C@]4(C)[C@H]3CC[C@]12C` [Finasteride] the fraction unbound at 4 h, 10 μM [1] was 0.27, the SRD5A1 suppression (SRD5A1 gene) was “comparable” and the IC50 (HEK293 cell line; HEK293 cell line, called antagonist activity against SRD5A2, read-out: IC50) was 1.24 ± 1.43 nM. The IC50 (HEK293 cell line; [12]) was 1.34 nM, the “selectivity for SRD5A2 than SRD5A1” value (SRD5A2) was 100 fold and the “SELECTIVITY INDEX” value [2] was 1.49. For the same compound, the “relative expression of the SRD5A2 gene increased” value (SRD5A2 gene [3]) was about 0.75 fold, the “SRD5A2 expression, drug treatment vs untreated, two-way ANOVA Dunnett test” value (SRD5A2 gene [3]; HEK293, IC50 values) was “ns” and the hepatocyte CLint at 1 μM (in vitro [4]) was 13.8 µL/min/1e6 cells. The “relative expression of the SRD5A2 gene reduced” value (SRD5A2 gene [5]) was “approximately 3 fold”, the “Predicted human Clearance” value [6] was 3.3 mL/min/kg and the hepatocyte CLint at 1 μM (in vitro [7]) was 4.5 µL/min/1e6 cells. The IC50 (DU-145 cell line; DU-145 cell line) was 0.72 ± 1.09 nM, the IC50 (DU-145 cell line; [13]) was 0.9 nM and the “Predicted mouse Clearance” value [8] was 10.6 mL/min/kg. The solubility at 24 h [9] was over 200 µM.

For `O=C1C=C(C(=O)O)C2C(C3CC3)=NN(c3ccc(F)cc3)C2N1` (centres unmarked) [Bsy1, 3-cyclopropyl-1-(4-fluorophenyl)-6-oxo-3a,6,7,7a-tetrahydro-1H-pyrazolo[3,4-b]pyridine-4-carboxylic acid], the hepatocyte CLint at 1 μM ([10]; human, cryopreserved hepatocytes in suspension) was 4.1 µL/min/1e6 cells, the hepatic clearance classification ([10]; human, predicted clearance below 30% of liver blood flow 20.7 ml/min/kg) was “low hepatic clearance” and the “Predicted human Clearance” value ([10]; scaled from human hepatocyte CLint,app) was 6.7 mL/min/kg. The hepatocyte CLint at 1 μM ([11]; CD1, mouse, cryopreserved hepatocytes in suspension) was under 6.4 µL/min/1e6 cells, the hepatic clearance classification ([11]; mouse, predicted clearance below 30% of liver blood flow 126 ml/min/kg) was “low hepatic clearance” and the “Predicted mouse Clearance” value ([11]; scaled from mouse hepatocyte CLint,app) was under 13.8 mL/min/kg. The fraction unbound at 4 h, 10 μM [1] was 0.95, the SRD5A1 suppression (SRD5A1 gene) was “comparable” and the IC50 (HEK293 cell line; [12]) was 0.02 nM. The “SELECTIVITY INDEX” value [2] was 3.7, the “relative expression of the SRD5A2 gene increased” value (SRD5A2 gene [3]) was “approximately 2 fold” and the IC50 (DU-145 cell line; DU-145 cell line) was 5400 nM. For the same compound, the solubility at 24 h [9] was over 200 µM.

With `COc1ccc(N2N=C(C3CC3)C3C(C(=O)O)=CC(=O)NC32)cc1` (centres unmarked) [Bsy6, 3-cyclopropyl-1-(4-methoxyphenyl)-6-oxo-3a,6,7,7a-tetrahydro-1H-pyrazolo[3,4-b]pyridine-4-carboxylic acid] the solubility at 24 h [9] was 120 µM (≈ 39.3 µg/mL).

`O=C1C=C(C(=O)O)C2C(C3CC3)=NN(c3ccc(Cl)cc3)C2N1` (centres unmarked) [Bsy3, 1-(4-chlorophenyl)-3-cyclopropyl-6-oxo-3a,6,7,7a-tetrahydro-1H-pyrazolo[3,4-b]pyridine-4-carboxylic acid] gave a solubility at 24 h [9] of 190 µM (≈ 63 µg/mL).

`O=C1C=C(C(=O)O)C2C(C3CC3)=NN(c3ccccc3F)C2N1` (centres unmarked) [Bsy4, 3-cyclopropyl-1-(2-fluorophenyl)-6-oxo-3a,6,7,7a-tetrahydro-1H-pyrazolo[3,4-b]pyridine-4-carboxylic acid] showed a solubility at 24 h [9] of over 200 µM.

`O=C1C=C(C(=O)O)C2C(C3CC3)=NN(c3ccc(Br)cc3)C2N1` (centres unmarked) [Bsy2, 1-(4-bromophenyl)-3-cyclopropyl-6-oxo-3a,6,7,7a-tetrahydro-1H-pyrazolo[3,4-b]pyridine-4-carboxylic acid] gave a solubility at 24 h [9] of 195 µM (≈ 73.4 µg/mL).

In the case of `C[C@]12C=CC(=O)N[C@@H]1CC[C@@H]1[C@@H]2CC[C@]2(C)[C@@H](C(=O)Nc3cc(C(F)(F)F)ccc3C(F)(F)F)CC[C@@H]12` [Dutasteride], the IC50 (HEK293 cell line; HEK293 cell line, called antagonist activity against SRD5A2) is reported as 1210 ± 1370 nM, the IC50 (HEK293 cell line; Homo sapiens, HEK293, HEK293 cell line, called antagonist activity against SRD5A2) is reported as 1290 nM and the “SELECTIVITY INDEX” value [2] is reported as 0.81. For the same compound, the “relative expression of the SRD5A2 gene increased” value (SRD5A2 gene [3]) was “approximately 2 fold”, the “relative expression of the SRD5A2 gene reduced” value (SRD5A2 gene [5]) was “approximately 3 fold” and the IC50 (DU-145 cell line; DU-145 cell line) was 1670 ± 1850 nM. It also gave an IC50 (DU-145 cell line; [13]) of 1600 nM.

`O=C1C=C(C(=O)O)C2C(C3CC3)=NN(c3cccc(F)c3)C2N1` (centres unmarked) [Bsy5, 3-cyclopropyl-1-(3-fluorophenyl)-6-oxo-3a,6,7,7a-tetrahydro-1H-pyrazolo[3,4-b]pyridine-4-carboxylic acid] gave a solubility at 24 h [9] of over 200 µM.
